{"source": "patent US12208088B2", "about": "(Genentech, Inc., priority 2018, dated 2025)", "note": "pKi: −log10 of the molar value.", "data": [{"target": "HPK1 (Homo sapiens (Human), UniProt Q92918)", "sequence (Q92918 1-346 limits assumed)": "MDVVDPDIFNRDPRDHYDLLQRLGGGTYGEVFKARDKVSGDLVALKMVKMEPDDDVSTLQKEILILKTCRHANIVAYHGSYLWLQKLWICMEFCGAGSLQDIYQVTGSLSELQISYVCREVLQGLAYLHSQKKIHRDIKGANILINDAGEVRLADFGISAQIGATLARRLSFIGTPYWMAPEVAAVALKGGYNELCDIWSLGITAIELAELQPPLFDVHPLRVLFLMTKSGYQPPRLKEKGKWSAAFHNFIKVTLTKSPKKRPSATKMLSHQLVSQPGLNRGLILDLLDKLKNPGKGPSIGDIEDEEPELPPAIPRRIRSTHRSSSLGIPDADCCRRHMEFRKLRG", "test": "HPK1 Lantha binding assay (\"Lanth\")", "settings": "binding assays; Morrison Ki fit", "how_it_was_run": "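Ki values are from Morrison-equation fitting of 665/615 nm TR-FRET signals, taking enzyme level, tracer level and tracer Kd into account. The assay mix held HPK1 (2 nM), Eu-anti-GST antibody (2 nM) and Tracer222 (15 nM). Incubations were two 1 h steps at 23 °C, on 5-fold serial compound dilutions.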", "values": [{"smiles": "CN(CC#N)C(=O)C1(c2cccc(-c3cnc4c(c3Cl)C3(CC=CC3)CN4)c2)CC1", "note": "[Compound 270, 1-(3-(4′-Chloro-1′,2′-dihydrospiro[cyclopentane-1,3′-pyrrolo[2,3-b]pyridin]-3-en-5′-yl)phenyl)-N-(cyanomethyl)-N-methylcyclopropane-1-carboxamide]", "pKi": 6.48}, {"smiles": "CN(C)C(=O)c1c(N)ccc(-c2cnc3c(c2Cl)[C@]2(CC[C@@H](S(C)(=O)=O)CC2)CN3)c1F", "note": "[Compound 273a, 6-Amino-3-((1r,4r)-4′-chloro-4-(methylsulfonyl)-1′,2′-dihydrospiro[cyclohexane-1,3′-pyrrolo[2,3-b]pyridin]-5′-yl)-2-fluoro-N,N-dimethylbenzamide]", "pKi": 7.35}, {"smiles": "Clc1c(-c2ccc3[nH]nnc3c2)cnc2c1C1(CC=CC1)CN2", "note": "[Compound 276, 5′-(1H-Benzo[d][1,2,3]triazol-5-yl)-4′-chloro-1′,2′-dihydrospiro[cyclopentane-1,3′-pyrrolo[2,3-b]pyridin]-3-ene]", "pKi": 6.60}, {"smiles": "O=C1OCc2ccc(-c3cnc4c(c3)C3(CC3)CN4)cc21", "note": "[Compound 277, 6-(1′,2′-dihydrospiro[cyclopropane-1,3′-pyrrolo[2,3-b]pyridin]-5′-yl)isobenzofuran-1(3H)-one]", "pKi": 6.47}, {"smiles": "CCC1(O)C(=O)Nc2ccc(-c3cnc4c(c3)C3(CC3)CN4)cc21", "note": "(stereo not shown) [Compound 278, 5-(1′,2′-dihydrospiro[cyclopropane-1,3′-pyrrolo[2,3-b]pyridin]-5′-yl)-3-ethyl-3-hydroxyindolin-2-one]", "pKi": 6.55}, {"smiles": "CC1(C#N)C(=O)Nc2ccc(-c3cnc4c(c3)C3(CC3)CN4)cc21", "note": "(stereo not shown) [Compound 279, 5-(1′,2′-dihydrospiro[cyclopropane-1,3′-pyrrolo[2,3-b]pyridin]-5′-yl)-3-methyl-2-oxoindoline-3-carbonitrile]", "pKi": 7.38}, {"smiles": "O=C1Nc2ccc(-c3cnc4c(c3Cl)C3(CC3)CN4)cc2C1(O)C1CC1", "note": "(stereo not shown) [Compound 280, 5-(4′-chloro-1′,2′-dihydrospiro[cyclopropane-1,3′-pyrrolo[2,3-b]pyridin]-5′-yl)-3-cyclopropyl-3-hydroxyindolin-2-one]", "pKi": 6.75}, {"smiles": "CC1(C(N)=O)C(=O)Nc2ccc(-c3cnc4c(c3Cl)C3(CC3)CN4)cc21", "note": "(stereo not shown) [Compound 281, 5-(4′-chloro-1′,2′-dihydrospiro[cyclopropane-1,3′-pyrrolo[2,3-b]pyridin]-5′-yl)-3-methyl-2-oxoindoline-3-carboxamide]", "pKi": 6.84}, {"smiles": "CC1(C#N)C(=O)Nc2ccc(-c3cnc4c(c3Cl)C3(CC3)CN4)cc21", "note": "(stereo not shown) [Compound 282, 5-(4′-chloro-1′,2′-dihydrospiro[cyclopropane-1,3′-pyrrolo[2,3-b]pyridin]-5′-yl)-3-methyl-2-oxoindoline-3-carbonitrile]", "pKi": 6.66}, {"smiles": "Clc1c(-c2cccc3[nH]ccc23)cnc2c1C1(CC=CC1)CN2", "note": "[Compound 284, 4-Chloro-5′-(1H-indol-4-yl)-1′,2′-dihydrospiro[cyclopentane-1,3′-pyrrolo[2,3-b]pyridin]-3-ene]", "pKi": 6.20}, {"smiles": "Clc1c(-c2ccc3[nH]ncc3c2)cnc2c1C1(CC=CC1)CN2", "note": "[Compound 285, 4-Chloro-5′-(1H-indazol-5-yl)-1′,2′-dihydrospiro[cyclopentane-1,3′-pyrrolo[2,3-b]pyridin]-3-ene]", "pKi": 6.43}, {"smiles": "Clc1c(-c2cccc3[nH]ncc23)cnc2c1C1(CC=CC1)CN2", "note": "[Compound 286, 4-Chloro-5′-(1H-indazol-4-yl)-1′,2′-dihydrospiro[cyclopentane-1,3′-pyrrolo[2,3-b]pyridin]-3-ene]", "pKi": 6.92}, {"smiles": "Clc1c(-c2ccc3[nH]ccc3c2)cnc2c1C1(CC=CC1)CN2", "note": "[Compound 287, 4-Chloro-5′-(1H-indol-5-yl)-1′,2′-dihydrospiro[cyclopentane-1,3′-pyrrolo[2,3-b]pyridin]-3-ene]", "pKi": 6.20}, {"smiles": "CN(C)C(=O)c1nc(-c2cnc3c(c2Cl)[C@]2(CC[C@](C)(C#N)C2)CN3)ccc1N", "note": "[Compound 288, 3-Amino-6-((1R,3 S)-4′-chloro-3-cyano-3-methyl-1′,2′-dihydrospiro[cyclopentane-1,3′-pyrrolo[2,3-b]pyridin]-5′-yl)-N,N-dimethylpicolinamide]", "pKi": 7.80}, {"smiles": "Nc1cc(-c2cnc3c(c2)C2(CC2)CN3)nc(N2CCCOC2=O)n1", "note": "[Compound 289, 3-(4-amino-6-(1′,2′-dihydrospiro[cyclopropane-1,3′-pyrrolo[2,3-b]pyridin]-5′-yl)pyrimidin-2-yl)-1,3-oxazinan-2-one]", "pKi": 6.67}, {"smiles": "Nc1ccc(-c2cnc3c(c2)C2(CC2)CN3)nc1C(=O)N1CC[C@H](O)C1", "note": "[Compound 290a, (S)-(3-amino-6-(1′,2′-dihydrospiro[cyclopropane-1,3′-pyrrolo[2,3-b]pyridin]-5′-yl)pyridin-2-yl)(3-hydroxypyrrolidin-1-yl)methanone]", "pKi": 6.25}, {"smiles": "Nc1ccc(-c2cnc3c(c2)C2(CC2)CN3)nc1C(=O)N1CC[C@@H](O)C1", "note": "[Compound 290b, (R)-(3-amino-6-(1′,2′-dihydrospiro[cyclopropane-1,3′-pyrrolo[2,3-b]pyridin]-5′-yl)pyridin-2-yl)(3-hydroxypyrrolidin-1-yl)methanone]", "pKi": 6.05}, {"smiles": "CN(C)C(=O)CNc1ccc(-c2cnc3c(c2)C2(CC2)CN3)cn1", "note": "[Compound 291, 2-((5-(1′,2′-dihydrospiro[cyclopropane-1,3′-pyrrolo[2,3-b]pyridin]-5′-yl)pyridin-2-yl)amino)-N,N-dimethylacetamide]", "pKi": 6.63}, {"smiles": "Nc1cc(-c2cnc3c(c2)C2(CC2)CN3)nc(N2CCOC2=O)c1", "note": "[Compound 292, 3-(4-amino-6-(1′,2′-dihydrospiro[cyclopropane-1,3′-pyrrolo[2,3-b]pyridin]-5′-yl)pyridin-2-yl)oxazolidin-2-one]", "pKi": 6.90}, {"smiles": "Nc1cc(-c2cnc3c(c2)C2(CC2)CN3)nc(N2CCCOC2=O)c1", "note": "[Compound 293, 3-(4-amino-6-(1′,2′-dihydrospiro[cyclopropane-1,3′-pyrrolo[2,3-b]pyridin]-5′-yl)pyridin-2-yl)-1,3-oxazinan-2-one]", "pKi": 7.32}, {"smiles": "CN(C)C(=O)c1cc(N)cc(-c2cnc3c(c2)C2(CC2)CN3)n1", "note": "[Compound 294, 4-amino-6-(1′,2′-dihydrospiro[cyclopropane-1,3′-pyrrolo[2,3-b]pyridin]-5′-yl)-N,N-dimethylpicolinamide]", "pKi": 6.51}, {"smiles": "Nc1cc(-c2cnc3c(c2)C2(CC2)CN3)nc(-c2ncccn2)c1", "note": "[Compound 295, 2-(1′,2′-dihydrospiro[cyclopropane-1,3′-pyrrolo[2,3-b]pyridin]-5′-yl)-6-(pyrimidin-2-yl)pyridin-4-amine]", "pKi": 6.41}, {"smiles": "Cn1cccc(-c2cc(-c3cnc4c(c3Cl)C3(CC3)CN4)cc(N)n2)c1=O", "note": "[Compound 296, 6-amino-4-(4′-chloro-1′,2′-dihydrospiro[cyclopropane-1,3′-pyrrolo[2,3-b]pyridin]-5′-yl)-1′-methyl-[2,3′-bipyridin]-2′(1′H)-one]", "pKi": 7.94}, {"smiles": "CN(C)C(=O)c1cccc2c(-c3cnc4c(c3)C3(CC3)CN4)c[nH]c12", "note": "[Compound 297, 3-(1′,2′-Dihydrospiro[cyclopropane-1,3′-pyrrolo[2,3-b]pyridin]-5′-yl)-N,N-dimethyl-1H-indole-7-carboxamide]", "pKi": 7.24}, {"smiles": "CN(C)C(=O)c1cccc2c(-c3cnc4c(c3Cl)C3(CC3)CN4)c[nH]c12", "note": "[Compound 298, 3-(4′-Chloro-1′,2′-dihydrospiro[cyclopropane-1,3′-pyrrolo[2,3-b]pyridin]-5′-yl)-N,N-dimethyl-1H-indole-7-carboxamide]", "pKi": 7.28}, {"smiles": "O=C1CCCCN1c1cccc2c(-c3cnc4c(c3)C3(CC3)CN4)c[nH]c12", "note": "[Compound 299, 1-(3-(1′,2′-Dihydrospiro[cyclopropane-1,3′-pyrrolo[2,3-b]pyridin]-5′-yl)-1H-indol-7-yl)piperidin-2-one]", "pKi": 7.05}, {"smiles": "O=C1CCCCN1c1cccc2c(-c3cnc4c(c3Cl)C3(CCC(O)C3)CN4)c[nH]c12", "note": "(stereo not shown) [Compound 300, 1-(3-(4′-Chloro-3-hydroxy-1′,2′-dihydrospiro[cyclopentane-1,3′-pyrrolo[2,3-b]pyridin]-5′-yl)-1H-indol-7-yl)piperidin-2-one]", "pKi": 7.30}, {"smiles": "CN(C)C(=O)Cc1cccc2c(-c3cnc4c(c3Cl)C3(CC3)CN4)c[nH]c12", "note": "[Compound 301, 2-(3-(4′-Chloro-1′,2′-dihydrospiro[cyclopropane-1,3′-pyrrolo[2,3-b]pyridin]-5′-yl)-1H-indol-7-yl)-N,N-dimethylacetamide]", "pKi": 7.17}, {"smiles": "O=C1COCCN1c1cccc2c(-c3cnc4c(c3Cl)C3(CC3)CN4)c[nH]c12", "note": "[Compound 302, 4-(3-(4′-Chloro-1′,2′-dihydrospiro[cyclopropane-1,3′-pyrrolo[2,3-b]pyridin]-5′-yl)-1H-indol-7-yl)morpholin-3-one]", "pKi": 7.33}, {"smiles": "O=C1CNCCN1c1cccc2c(-c3cnc4c(c3)C3(CC3)CN4)c[nH]c12", "note": "[Compound 303, 1-(3-(1′,2′-Dihydrospiro[cyclopropane-1,3′-pyrrolo[2,3-b]pyridin]-5′-yl)-1H-indol-7-yl)piperazin-2-one]", "pKi": 7.49}, {"smiles": "N#Cc1ccc2[nH]cc(-c3cnc4c(c3)C3(CC3)CN4)c2c1", "note": "[Compound 307, 3-(1′,2′-Dihydrospiro[cyclopropane-1,3′-pyrrolo[2,3-b]pyridin]-5′-yl)-1H-indole-5-carbonitrile]", "pKi": 7.76}, {"smiles": "Cc1n[nH]cc1-c1cnc2c(c1Cl)C1(CC=CC1)CN2", "note": "[Compound 308, 4′-Chloro-5′-(3-methyl-1H-pyrazol-4-yl)-1′,2′-dihydrospiro[cyclopentane-1,3′-pyrrolo[2,3-b]pyridin]-3-ene]", "pKi": 6.73}, {"smiles": "COc1c(-c2ccc(N)c(C(=O)N(C)C)n2)cnc2c1C1(CC1)CN2", "note": "[Compound 309, 3-Amino-6-(4′-methoxy-1′,2′-dihydrospiro[cyclopropane-1,3′-pyrrolo[2,3-b]pyridin]-5′-yl)-N,N-dimethylpicolinamide]", "pKi": 7.54}, {"smiles": "CN1CCN(c2cc(Cl)cc3c(-c4cnc5c(c4)C4(CC4)CN5)c[nH]c23)C(=O)C1", "note": "[Compound 310, 1-(5-Chloro-3-(1′,2′-dihydrospiro[cyclopropane-1,3′-pyrrolo[2,3-b]pyridin]-5′-yl)-1H-indol-7-yl)-4-methylpiperazin-2-one]", "pKi": 7.97}]}]}
